Data: patent US8975223B2, “Methods for treating metabolic disorders and obesity with a peptide comprising the amino acid sequence of SEQ ID No. 146” (Marcadia Biotech, Inc., priority 2010, dated 2015)
Entries after “also recorded” stand apart in the source; their conditions may differ. Where no end group is shown, it is not given here. [ ]: non-standard residue; d: D form. Aib = CC(C)(N)C(=O)O

Legend:
Type in all cases: in vivo, human
[1] = Phase I single-ascending dose study, safety, tolerability, PK and PD, single SC injection; settings: for mean daily fasting glucose level by day 7: healthy subjects (placebo 78.7)
Procedure: A Phase I, randomized, placebo-controlled, sequential, single-ascending, two period, study was performed in healthy male subjects to evaluate the safety, tolerability, pharmacokinetic (PK), and pharmacodynamic (PD) properties of extended half-life GLP-1/GIP coagonist peptide. Healthy adult male subjects (about 18 to 55 years of age) who were in general good health based on medical history, physical examination, ECG, and routine laboratory tests (e.g., blood, chemistry, hematology, urinalysis, and drug screen) with a body mass index between 20 kg/m^2 and 30 kg/m^2 were selected for the study. The extended half-life GLP-1/GIP coagonist peptide tested in all of the Examples was SEQ ID NO: 153.
The subjects were randomized into cohorts.
Following an overnight fast of at least 10 hours, the subjects received a single dose of the study drug or placebo as a subcutaneous (SC) injection in the abdomen. Blood samples were collected for fasting insulin, glucose, and glucagon levels pre-dose (i.e., within 30 minutes prior to dosing) on Day 1 and on Days 2, 3, 4, 5, 6, and 7. Plasma samples for pharmacokinetic analysis were collected pre-dose and at 0.5, 1, 2, 4, 8, and 12 hours post-dose on Day 1 and on Days 2, 3, 4, 5, 6, 7, 14, 28, and 35. The subjects were monitored through Day 35 for adverse events, weight, and vital signs.

[2] = test system: beta cell response to a glucose load; experiment: Phase I two-part study, beta cell response to graded glucose infusion; settings: for LS mean change in insulin secretion rate at each glucose infusion rate, placebo vs treatment: 72 hours after dosing, p<0.001
Procedure: (§1) A Phase I, randomized, placebo-controlled, positive-controlled two-part study was performed in healthy male and female subjects to evaluate the effect of a range of doses on beta cell response to a glucose load and to assess the effect of these doses on gastric emptying. Beta cell function was assessed by calculation of prehepatic insulin secretion in response to a graded glucose infusion. Gastric emptying was assessed by measurement of plasma appearance of ingested acetaminophen.
(§2) During Part 2, subjects in Cohort 2 received placebo on Day 1, followed by 8 mg of the extended half-life GLP-1/GIP coagonist peptide on Day 2. Subjects in Cohort 3 received placebo on Day 1, followed by 4 mg of the extended half-life GLP-1/GIP coagonist peptide on Day 2. Subjects in Cohort 4 received placebo on Day 1, followed by 16 mg of the extended half-life GLP-1/GIP coagonist peptide on Day 2.
(§3) Blood samples for glucose, C-peptide, insulin, and safety laboratory tests were drawn at −120, −15, and −10 minutes. At −10 minutes, subjects ingested 1000 mg acetaminophen elixir with 240 mL water. At 0 minutes, a step-wise infusion of glucose (20% dextrose) was started, a second SC injection of placebo was administered, and blood samples for glucose, C-peptide, insulin, and safety laboratory tests were drawn. Glucose was infused for a total of 2.5 hours at a rate of 2, 4, 6, 8, and 12 mg/kg/min. Each level of glucose infusion was maintained for 30 minutes. Blood samples for glucose, C-peptide, and insulin were drawn again at 10, 20, and 30 minutes during each 30-minute infusion period. Blood samples for plasma acetaminophen concentration were drawn at −10, 30, 60, 90, 120, 150, 180, 210, 240, 300, and 480 minutes.
(§4) Blood samples for glucose, C-peptide, and insulin were drawn at −120, −15, and −10 minutes. At −10 minutes, subjects ingested 1000 mg acetaminophen elixir with 240 mL water. […] Glucose was infused for a total of 2.5 hours at a rate of 2, 4, 6, 8, and 12 mg/kg/min. Each level of glucose infusion was maintained for 30 minutes. […] Blood samples for glucose, C-peptide, and insulin were drawn at 10, 20, and 30 minutes during each 30-minute infusion period. Blood samples for plasma acetaminophen concentration were drawn at −10, 30, 60, 90, 120, 150, 180, 210, 240, 300, and 480 minutes.
(§5) Blood samples for glucose, C-peptide, insulin, and safety laboratory tests were drawn at −15 and −10 minutes. At −10 minutes, subjects ingested 1000 mg acetaminophen elixir with 240 mL water. At 0 minutes, a step-wise infusion of glucose (20% dextrose) was started and blood samples for glucose, C-peptide, and insulin were drawn. Glucose was infused for a total of 2.5 hours at a rate of 2, 4, 6, 8, and 12 mg/kg/min. Each level of glucose infusion was maintained for 30 minutes. Blood samples for glucose, C-peptide, and insulin were drawn again at 10, 20, and 30 minutes during each 30-minute infusion period. Blood samples for plasma acetaminophen concentration were drawn at −10, 30, 60, 90, 120, 150, 180, 210, 240, 300, and 480 minutes.
On Day 2, following an overnight fast of 10 hours, a blood sample for glucose, C-peptide, and insulin was drawn at −10 minutes. Subjects received an injection of extended half-life GLP-1/GIP coagonist peptide at 0 minutes. Subjects in Cohort 2 received 8 mg of extended half-life GLP-1/GIP coagonist peptide, subjects in Cohort 3 received 4 mg of extended half-life GLP-1/GIP coagonist peptide, and subjects in Cohort 4 received 16 mg of extended half-life GLP-1/GIP coagonist peptide. At 0 minutes, a blood sample for extended half-life GLP-1/GIP coagonist peptide concentration, C-peptide, insulin, glucose, and safety laboratory tests was drawn.
At −10 minutes, subjects ingested 1000 mg acetaminophen elixir with 240 mL water. […] Glucose was infused for a total of 2.5 hours at a rate of 2, 4, 6, 8, and 12 mg/kg/min. Each level of glucose infusion was maintained for 30 minutes.

gastric emptying = experiment: Phase I two-part study, gastric emptying by plasma appearance of ingested acetaminophen
Procedure: as §1, §2, §3, §4, §5
At −10 minutes, subjects ingested 1000 mg acetaminophen elixir with 240 mL water. […] Glucose was infused for a total of 2.5 hours at a rate of 2, 4, 6, 8, and 12 mg/kg/min. Each level of glucose infusion was maintained for 30 minutes. […] Blood samples for plasma acetaminophen concentration were drawn at −10, 30, 60, 90, 120, 150, 180, 210, 240, 300, and 480 minutes.

[3] = 4 mg, 8 mg, 16 mg, graded glucose infusion
[4] = 4 mg, 8 mg, 16 mg, 72 hours after dosing

extended half-life GLP-1/GIP coagonist peptide: The extended half-life GLP-1/GIP coagonist peptide tested in all of the Examples was SEQ ID NO: 153 (Y[Aib]EGTFTSDYSIYLDKQAA[Aib]EFVC(PEG 40 kDa)WLLAGGPSSGAPPPSK-NH2)
AUC (AUC0-144) ([1]; 0.1 mg single SC dose, plasma): 12,349 pM·hr | Cmax ([1]; 0.1 mg single SC dose, plasma): 0.183 nM | AUC (AUC0-144) ([1]; 8 mg single SC dose, plasma): 1,382,376 pM·hr | Cmax ([1]; 8 mg single SC dose, plasma): 13 nM | mean daily fasting glucose level by day 7 ([1]; 16 mg dose): 76.5 mg/dL | time to maximum observed plasma concentration (Tmax) ([1]; 16 mg single SC dose): 112.5 h | mean daily fasting glucose level by day 7 ([1]; 24 mg dose): 72.7 mg/dL | time to maximum observed plasma concentration (Tmax) ([1]; 24 mg single SC dose): 56.0 h | mean daily fasting glucose level by day 7 ([1]; 32 mg dose): 71.7 mg/dL | time to maximum observed plasma concentration (Tmax) ([1]; 32 mg single SC dose): 80.0 h | AUC (AUC0-last) ([1]; 32 mg single SC dose, plasma): 12,582 nM·hr | Cmax ([1]; 32 mg single SC dose, plasma): 54.8 nM | absolute bioavailability ([1]; SC injection): 100% | dose proportionality of AUC and Cmax ([1]; doses ranging from 0.1 mg to 32 mg): dose proportional | dose-related trends for fasting insulin, glucose and glucagon levels ([1]; healthy subjects): No dose-related trends | apparent t1/2 ([1]; plasma, single SC dose, healthy male subjects): approximately 5 days | safety and tolerability ([1]; single SC doses 0.1 mg to 32 mg, healthy male subjects): generally safe and well tolerated; also recorded: well tolerated and not associated with adverse events, clinically important laboratory findings, or ECG findings | LS mean change in C peptide, comparison between dose groups ([2]; 4 mg vs 8 mg groups, p=0.0055): 0.01 ng/mL per mg/dL | LS mean change in insulin secretion rate, comparison between dose groups ([2]; 4 mg vs 8 mg groups, p=0.0067): 0.01 μIU/mL per mg/dL | LS mean change in insulin, comparison between dose groups ([2]; 4 mg vs 8 mg groups, p=0.0251): 0.09 μIU/mL per mg/dL | LS mean change in C peptide, comparison between dose groups ([2]; 4 mg vs 16 mg groups, p<0.0001): 0.03 ng/mL per mg/dL | LS mean change in insulin secretion rate, comparison between dose groups ([2]; 4 mg vs 16 mg groups, p<0.0001): 0.04 μIU/mL per mg/dL | LS mean change in insulin, comparison between dose groups ([2]; 4 mg vs 16 mg groups, p<0.0001): 0.17 μIU/mL per mg/dL | C-peptide level in comparison to placebo [2, 3]: dose dependent, dose proportional, increase | insulin secretion rate (ISR) in comparison to placebo [2, 3]: dose dependent, dose proportional, increase | LS mean change in insulin secretion rate at each glucose infusion rate, placebo vs treatment ([2]; 4 mg): 0.03 μIU/mL | LS mean change in C peptide at each glucose infusion rate, placebo vs treatment ([2]; 4 mg, p<0.0001): 0.02 ng/mL per mg/dL | LS mean change in insulin at each glucose infusion rate, placebo vs treatment ([2]; 4 mg, p<0.0001): 0.27 μIU/mL per mg/dL | LS mean change in C peptide, comparison between dose groups ([2]; 8 mg vs 16 mg groups, p<0.0001): 0.02 ng/mL per mg/dL | LS mean change in insulin secretion rate, comparison between dose groups ([2]; 8 mg vs 16 mg groups, p<0.0001): 0.03 μIU/mL per mg/dL | LS mean change in insulin, comparison between dose groups ([2]; 8 mg vs 16 mg groups, p=0.0316): 0.08 μIU/mL per mg/dL | LS mean change in insulin secretion rate at each glucose infusion rate, placebo vs treatment ([2]; 8 mg): 0.04 μIU/mL | LS mean change in C peptide at each glucose infusion rate, placebo vs treatment ([2]; 8 mg, p<0.0001): 0.03 ng/mL per mg/dL | LS mean change in insulin at each glucose infusion rate, placebo vs treatment ([2]; 8 mg, p<0.0001): 0.35 μIU/mL per mg/dL | increase in insulin secretion rate ([2]; 16 mg (maximum dose), vs placebo, p=0.001): approximately 44% | change in glucose levels between the 8 mg/kg/min and 12 mg/kg/min infusion rates ([2]; 16 mg and 8 mg groups): no increases in glucose levels | LS mean change in insulin secretion rate at each glucose infusion rate, placebo vs treatment ([2]; 16 mg): 0.07 μIU/mL | LS mean change in C peptide at each glucose infusion rate, placebo vs treatment ([2]; 16 mg, p<0.0001): 0.05 ng/mL per mg/dL | LS mean change in insulin at each glucose infusion rate, placebo vs treatment ([2]; 16 mg, p<0.0001): 0.43 μIU/mL per mg/dL | glucose levels compared to placebo group ([2]; all dose groups, all glucose infusion rates): lower glucose levels than the placebo group | Cmax of plasma acetaminophen (gastric emptying; [4]): trend toward lower Cmax at a higher dose | Tmax of plasma acetaminophen compared to placebo (gastric emptying; [4]): not significantly different from placebo | total acetaminophen absorbed (AUC0-4 hr) compared to placebo (gastric emptying; [4]): not significantly different from placebo | delay in the absorption of acetaminophen (gastric emptying; 4 mg, 8 mg, 16 mg, 72 hours after dosing, 1000 mg acetaminophen): not associated with a significant delay | effect on gastric emptying (gastric emptying; doses that increase insulin secretion in response to a glucose infusion): does not delay gastric emptying
